Assay: xn = mol fraction of the nth substance listed
Settings: 100 kPa

CC[N+](C)(CC)CCOC.F[B-](F)(F)F + CCCC[n+]1ccn(C)c1C.F[B-](F)(F)F
electrical conductivity [S/m]
Settings | x1 = 0.1 | x1 = 0.2 | x1 = 0.3 | x1 = 0.4 | x1 = 0.5 | x1 = 0.6 | x1 = 0.7 | x1 = 0.8 | x1 = 0.9 | x1 = 1
313.15 K | 0.231 | 0.244 | 0.282 | – | 0.29 | 0.296 | – | 0.321 | 0.348 | 0.343
318.15 K | 0.305 | – | 0.354 | – | – | 0.38 | 0.392 | – | 0.445 | –
323.15 K | 0.392 | 0.404 | 0.437 | 0.445 | 0.465 | 0.472 | 0.498 | 0.519 | – | 0.553
328.15 K | – | – | 0.534 | 0.541 | – | 0.579 | 0.614 | 0.639 | – | 0.68
333.15 K | 0.604 | 0.613 | 0.643 | 0.67 | – | 0.72 | 0.766 | 0.782 | 0.822 | 0.829
338.15 K | 0.727 | 0.736 | 0.758 | – | 0.79 | 0.828 | 0.884 | 0.939 | 0.995 | 1
343.15 K | 0.861 | 0.871 | 0.9 | – | 0.936 | 0.978 | 1.03 | 1.09 | – | 1.18
348.15 K | 1.02 | 1.03 | 1.05 | 1.07 | 1.09 | – | 1.2 | 1.27 | 1.37 | 1.39
353.15 K | 1.16 | – | – | – | – | 1.32 | – | 1.42 | 1.59 | –
358.15 K | 1.31 | 1.35 | – | – | 1.46 | 1.51 | 1.56 | – | 1.82 | 1.86
363.15 K | 1.5 | 1.53 | 1.58 | 1.62 | – | 1.73 | 1.77 | 1.82 | 2.01 | –

CCCCn1cc[n+](C)c1C.O=S(=O)([N-]S(=O)(=O)C(F)(F)F)C(F)(F)F + CCCC[n+]1ccn(C)c1C.F[B-](F)(F)F
electrical conductivity [S/m]
Settings | x1 = 0.1 | x1 = 0.2 | x1 = 0.3 | x1 = 0.4 | x1 = 0.5 | x1 = 0.6 | x1 = 0.7 | x1 = 0.8 | x1 = 0.9 | x1 = 1
313.15 K | 0.231 | 0.249 | 0.265 | 0.305 | – | 0.32 | 0.35 | 0.403 | 0.476 | 0.465
318.15 K | 0.301 | 0.32 | – | 0.378 | – | 0.394 | 0.432 | – | 0.572 | 0.566
323.15 K | 0.381 | – | – | – | 0.476 | 0.482 | 0.521 | 0.59 | 0.683 | 0.665
328.15 K | 0.474 | 0.49 | 0.508 | 0.54 | 0.572 | 0.581 | 0.617 | 0.698 | 0.812 | 0.777
333.15 K | 0.587 | 0.6 | 0.617 | 0.645 | 0.68 | – | 0.709 | 0.816 | 0.94 | 0.901
338.15 K | 0.707 | 0.715 | – | – | 0.796 | – | 0.839 | 0.949 | 1.08 | 1.04
343.15 K | 0.844 | 0.848 | 0.859 | 0.894 | 0.931 | 0.952 | 0.963 | 1.08 | 1.23 | 1.18
348.15 K | 0.997 | 0.995 | 1.01 | – | 1.07 | 1.08 | 1.09 | – | – | 1.37
353.15 K | 1.16 | 1.15 | 1.16 | 1.18 | 1.23 | 1.23 | 1.24 | – | 1.56 | 1.54
358.15 K | – | 1.31 | 1.32 | 1.34 | – | 1.4 | – | – | 1.74 | –
363.15 K | 1.5 | – | 1.5 | 1.51 | – | 1.57 | 1.59 | 1.64 | 1.91 | 1.87

CCCC[n+]1ccn(C)c1C.F[B-](F)(F)F + CC[N+](C)(CC)CCOC.F[B-](F)(F)F
x2 = 0
Settings | electrical conductivity [S/m]
318.15 K | 0.153
323.15 K | 0.202
328.15 K | 0.26
353.15 K | 0.749
358.15 K | 0.867
363.15 K | 0.995

CC[N+](C)(CC)CCOC.O=S(=O)([N-]S(=O)(=O)C(F)(F)F)C(F)(F)F + CC[N+](C)(CC)CCOC.F[B-](F)(F)F
x1 = 1
Settings | electrical conductivity [S/m]
293.15 K | 0.237
303.15 K | 0.382
308.15 K | 0.476
313.15 K | 0.572
318.15 K | 0.683
323.15 K | 0.794
328.15 K | 0.922
333.15 K | 1.06
338.15 K | 1.2
343.15 K | 1.32

CC[N+](C)(CC)CCOC.F[B-](F)(F)F + CC[N+](C)(CC)CCOC.O=S(=O)([N-]S(=O)(=O)C(F)(F)F)C(F)(F)F
electrical conductivity [S/m]
Settings | x2 = 0 | x2 = 0.1 | x2 = 0.2 | x2 = 0.3 | x2 = 0.4 | x2 = 0.5 | x2 = 0.6 | x2 = 0.7 | x2 = 0.8 | x2 = 0.9
293.15 K | 0.096 | – | 0.133 | 0.14 | 0.149 | 0.161 | 0.175 | 0.168 | 0.184 | 0.198
298.15 K | 0.136 | 0.161 | 0.174 | – | 0.202 | 0.214 | 0.234 | – | 0.251 | –
303.15 K | 0.19 | 0.218 | 0.233 | 0.25 | 0.264 | 0.277 | 0.304 | 0.298 | 0.324 | –
308.15 K | 0.255 | 0.292 | 0.305 | – | 0.338 | – | – | 0.381 | 0.407 | 0.423
313.15 K | 0.343 | 0.381 | – | – | 0.425 | 0.444 | 0.47 | 0.472 | – | 0.509
318.15 K | 0.437 | 0.483 | 0.485 | 0.506 | – | 0.541 | 0.569 | – | 0.599 | 0.625
323.15 K | 0.553 | 0.596 | – | – | 0.636 | 0.652 | 0.684 | 0.687 | 0.709 | 0.731
328.15 K | 0.68 | 0.737 | – | 0.734 | 0.763 | 0.779 | – | 0.804 | 0.833 | 0.863
333.15 K | 0.829 | – | 0.858 | 0.873 | 0.897 | – | 0.934 | – | 0.964 | 0.993
338.15 K | 1 | 1.06 | 1.02 | 1.02 | 1.04 | 1.06 | 1.08 | – | 1.11 | 1.13
343.15 K | 1.18 | 1.24 | – | – | 1.2 | 1.22 | 1.24 | 1.23 | – | 1.29

CCCCn1cc[n+](C)c1C.O=S(=O)([N-]S(=O)(=O)C(F)(F)F)C(F)(F)F + CC[N+](C)(CC)CCOC.O=S(=O)([N-]S(=O)(=O)C(F)(F)F)C(F)(F)F
electrical conductivity [S/m]
Settings | x2 = 0 | x2 = 0.1 | x2 = 0.2 | x2 = 0.3 | x2 = 0.4 | x2 = 0.5 | x2 = 0.6 | x2 = 0.7 | x2 = 0.8 | x2 = 0.9
293.15 K | – | 0.191 | – | 0.195 | 0.201 | – | 0.206 | 0.211 | 0.21 | 0.21
298.15 K | – | 0.253 | – | 0.259 | 0.263 | 0.264 | 0.268 | 0.275 | 0.28 | 0.28
303.15 K | 0.302 | 0.323 | 0.326 | 0.325 | 0.336 | 0.337 | 0.345 | 0.355 | 0.351 | 0.351
308.15 K | – | 0.402 | 0.403 | 0.407 | 0.414 | 0.423 | 0.426 | 0.432 | 0.434 | 0.434
313.15 K | 0.465 | 0.498 | 0.497 | 0.499 | 0.509 | – | 0.515 | – | 0.56 | 0.56
318.15 K | 0.566 | 0.589 | – | 0.601 | 0.611 | 0.616 | 0.62 | 0.638 | – | 0.648
323.15 K | – | 0.705 | 0.71 | 0.722 | 0.726 | 0.735 | 0.742 | – | 0.763 | 0.763
328.15 K | – | – | 0.825 | – | – | 0.865 | 0.87 | 0.876 | 0.902 | –
333.15 K | 0.901 | 0.965 | 0.962 | 0.969 | 0.973 | 0.991 | – | 1.01 | 1.02 | 1.02
338.15 K | 1.04 | 1.1 | – | 1.12 | 1.12 | 1.13 | 1.13 | 1.16 | 1.17 | 1.17
343.15 K | 1.18 | – | – | 1.27 | 1.27 | 1.28 | 1.29 | 1.32 | – | 1.33

CCCC[n+]1ccn(C)c1C.F[B-](F)(F)F + FC(S(=O)(=O)[N-]S(=O)(=O)C(F)(F)F)(F)F.C(CCC)N1C(=[N+](C=C1)C)C
x2 = 0
Settings | electrical conductivity [S/m]
318.15 K | 0.153
333.15 K | 0.335
343.15 K | 0.531
348.15 K | 0.63
353.15 K | 0.749
358.15 K | 0.867
363.15 K | 0.995

CC[N+](C)(CC)CCOC.O=S(=O)([N-]S(=O)(=O)C(F)(F)F)C(F)(F)F + FC(S(=O)(=O)[N-]S(=O)(=O)C(F)(F)F)(F)F.C(CCC)N1C(=[N+](C=C1)C)C
x1 = 1
Settings | electrical conductivity [S/m]
293.15 K | 0.237
298.15 K | 0.311
303.15 K | 0.382
308.15 K | 0.476
313.15 K | 0.572
318.15 K | 0.683
323.15 K | 0.794
328.15 K | 0.922
333.15 K | 1.06
338.15 K | 1.2
343.15 K | 1.32
